# Test results: patent US8246942B2, “Microbicidal compositions” (LANXESS Deutschland GmbH, priority 2000, dated 2012)
# Where two headings read alike, the source gives them in different places.
# Tested on: Pseudomonas fluorescens
# Assay: Determination of the minimum inhibitory concentration (MIC) against Pseudomonas fluorescens
# Type: cell-based
# Details: for MIC: Pseudomonas fluorescens, read-out: MIC value against Pseudomonas fluorescens
# From the text: The observed synergism of the active compound mixtures, claimed in the present application, consisting of o-phenylphenol (OPP) and other bactericides can be determined by the following mathematical equation (see F. C. Kull, P. C. Elisman, H. D. Sylwestrowicz and P. K. Mayer, Appl. Microbiol. 9, 538 (1960):
# [formula] where • Qa=the amount of component A in the active compound mixture which achieves the desired effect, i.e. no microbial growth. • QA=the amount of component A which, when used on its own, suppresses the growth of the microorganisms. • Qb=the amount of component B in the active compound mixture which suppresses the growth of the microorganisms. • Qb=the amount of component B which, when used on its own, suppresses the growth of the microorganisms.
# A synergistic index of <1 indicates a synergistic effect for the active compound mixture.
# Determination of the Minimum Inhibitory Concentration (MIC) of Compositions According to the Invention Against Pseudomonas fluerescens
# [1] = Example 2, OPP/Tektamer 38, weight ratios
smiles,measurement,setting,value
"O=[N+]([O-])C(Br)(CO)CO [BNPD, 2-bromo-2-nitro-1,3-propanediol]",MIC,"Example 1, OPP/BNPD (bronopol), weight ratios",35 µg/mL
"Cn1sccc1=O [MIT, 2-methyl-2H-isothiazol-3-one]",MIC,,30 µg/mL
"Oc1ccccc1-c1ccccc1 [OPP, o-phenylphenol]",MIC value against Pseudomonas fluorescens,[1],500 mg/L
same,MIC value against Pseudomonas fluorescens,"Example 3, OPP/MIT, weight ratios",500 mg/L
same,MIC,,500 µg/mL
"N#CCCC(Br)(C#N)CBr (stereo not drawn) [Tektamer 38, 1,2-dibromo-2,4-dicyanobutane]",MIC,[1],100 µg/mL
